US20090131515A1, “Combination of antidiabetic drugs” (SIGMA-TAU INDUSTRIE FARMACEUTICHE RIUNITE S.p.A., priority 2003, published 2009)
Where “and” joins values, the source holds several entries; their conditions need not be identical. Equal values may be shown once. Read-outs that look alike come from different tables or passages of the source.

Legend:
ob/ob mice [1] = assay: Insulin Suppression Test (IST), blood glucose of ob/ob mice; assay type: in vivo, mouse; conditions: for Blood glucose levels in the IST: male ob/ob mice, postabsorption, 8 hours after last treatment, mean ± s.e.; for Reduction of hyperglycaemia in the IST: ob/ob mouse
From the text: (§1) The B6. V-Lep ob/ob, C57BL/KsJ db/db and C57BL/6 mice used in the experiments were supplied by Jackson Lab. (via Charles River).
(§2) Blood samples were taken from ob/ob and db/db mice in standard environmental conditions, on a normal diet (4 RF21, Mucedola) and from C57BL/6J mice on a high-fat diet (D-12331, Research Diets) for 3 months, in postabsorption conditions (fasting from 8.30 a.m. to 4.30 p.m.) from the caudal vein, with the aid of a Jelco 22G catheter (Johnson and Johnson).
(§3) The mice were treated orally twice daily (at 8.30 a.m. and 6.30 p.m.) with ST1326 at the dose of 30 mg/kg and with metformin at the dose of 200 mg/kg, alone or in combination.
(§4) Blood samples were taken on various different days after administration of the products and in different nutritional conditions for the serum glucose determinations, OGTT (Oral Glucose Tolerance Test) and IST (Insulin Suppression Test: Fujita et al., Diabetes 32: 804-810, 1983; Meglasson et al., J. Pharm. Exp. Therap. 266: 1454-1462, 1993; Luo et al., J. Pharm. Exp. Therap. 288: 529-534, 1999).
In the IST, blood samples were taken 60 min after subcutaneous loading of glucose (3 g/kg), insulin (Humulin R., Lilly 2 U/kg) and somatostatin (0.5 mg/kg).

db/db mice [2] = assay: Blood glucose of db/db mice in postabsorption conditions, ST1326 and metformin alone or in combination; assay type: in vivo, mouse; conditions: male db/db mice, ST1326 30 mg/kg and metformin 200 mg/kg alone or in combination, twice daily for 16 days, 6 hours after last treatment, mean ± s.e.
From the text: as §1, §2, §3, §4

db/db mice [3] = assay: Oral Glucose Tolerance Test (OGTT) in db/db mice; assay type: in vivo, mouse; conditions: male db/db mice, fasting overnight; for Blood glucose in the OGTT, 0 min: ST1326 30 mg/kg and metformin 200 mg/kg alone or in combination, twice daily for 37 days, 15 hours after last treatment; for Blood glucose in the OGTT, 30 min / Blood glucose in the OGTT, 60 min / Blood glucose in the OGTT, 120 min / Blood glucose in the OGTT, AUC: same treatment for 37 days; for Blood glucose in the OGTT, 30 min: 30 min after glucose loading; for Blood glucose in the OGTT, 60 min: 60 min after glucose loading; for Blood glucose in the OGTT, 120 min: 120 min after glucose loading; for Blood glucose in the OGTT, AUC: AUC 0-120 min
From the text: as §1, §2, §3, §4
(§5) In the OGTT, blood samples were taken 0, 30, 60 and 120 minutes after glucose loading (3 g/kg).

[4] = tested on: C57BL/6J mice on a high-fat diet; assay: Blood glucose of C57BL/6J mice on a high-fat diet, postabsorption conditions; assay type: in vivo, mouse; conditions: male C57BL/6J mice on high-fat diet, ST1326 30 mg/kg and metformin 200 mg/kg alone or in combination, twice daily for 15 days, 6 hours after last treatment, mean ± s.e.
From the text: (§6) An example is the C57BL/6 mouse, which, as a result of exposure to a high-fat diet, develops not only insulin resistance but also mild hyperglycaemia (Surwit et al., 37: 1163-1167, 1988; Luo et al., Metabolism 47: 663-668,1998).
as §1, §2, §3, §4

[5] = tested on: C57BL/6 mice on a high-fat diet; assay: Oral Glucose Tolerance Test (OGTT) in C57BL/6 mice on a high-fat diet; assay type: in vivo, mouse; conditions: male C57BL/6 mice on high-fat diet; for Blood glucose in the OGTT, 0 min: ST1326 30 mg/kg and metformin 200 mg/kg alone or in combination, twice daily for 35 days, postabsorption, 6 hours after last treatment; for Blood glucose in the OGTT, 30 min / Blood glucose in the OGTT, 60 min / Blood glucose in the OGTT, 120 min / Blood glucose in the OGTT, AUC: same treatment for 35 days; for Blood glucose in the OGTT, 30 min: 30 min after glucose loading; for Blood glucose in the OGTT, 60 min: 60 min after glucose loading; for Blood glucose in the OGTT, 120 min: 120 min after glucose loading; for Blood glucose in the OGTT, AUC: AUC 0-120 min
From the text: as §6, §1, §2, §3, §4, §5

KKAy mouse = conditions: cited from earlier work
type 2 diabetes patients = conditions: cited from earlier work
db/db mice [6] = assay: Serum glucose of db/db mice treated with ST1326 for 45 days, postabsorption conditions; assay type: in vivo, mouse; conditions: for Lowering serum glucose: db/db mice; for Serum glucose levels: male db/db mice, postabsorption, 8 hours after last treatment, mean ± s.e.
From the text: as §1, §2

ob/ob mice [7] = assay: Blood glucose of ob/ob mice in feeding conditions; assay type: in vivo, mouse; conditions: male ob/ob mice, ST1326 30 mg/kg and metformin 200 mg/kg alone or in combination, twice daily for 11 days, 15 hours after last treatment, mean ± s.e.
From the text: as §1, §2, §3, §4

[8] = ST1326 30 mg/kg and metformin 200 mg/kg alone or in combination, twice daily for 18 days

SMILES | Blood glucose levels in the IST (ob/ob mice [1]; [8]) [mg/dL] | Blood glucose levels (db/db mice [2]) [mg/dL] | Blood glucose in the OGTT, 0 min (db/db mice [3]) [mg/dL] | Blood glucose in the OGTT, 30 min (db/db mice [3]) [mg/dL] | Blood glucose in the OGTT, 60 min (db/db mice [3]) [mg/dL] | Blood glucose in the OGTT, 120 min (db/db mice [3]) [mg/dL] | Blood glucose in the OGTT, AUC (db/db mice [3]) [mg·min/dL] | Blood glucose levels [4] [mg/dL] | Blood glucose in the OGTT, 0 min [5] [mg/dL] | Blood glucose in the OGTT, 30 min [5] [mg/dL] | Blood glucose in the OGTT, 60 min [5] [mg/dL] | Blood glucose in the OGTT, 120 min [5] [mg/dL] | Blood glucose in the OGTT, AUC [5] [mg·min/dL] | also measured
CN(C)C(=N)N=C(N)N [METFORMIN, metformin] | 433.7 ± 34.8 | 337.8 ± 33.1 | 195.5 ± 21.5 | 530.9 ± 34.6 | 456.8 ± 52.4 | 344.4 ± 40.9 | 49700 ± 4720 | 146.1 ± 9.2 | 141.1 ± 11.4 | 241.2 ± 18.9 | 212.3 ± 5.0 | 186.2 ± 15.1 | 24500 ± 1180 | Blood glucose levels in the IST (ob/ob mice [1]; oral metformin 300 mg/kg twice daily for 8 days): 412.1 ± 3.5 □ mg/dl; Reduction of hyperglycaemia in the IST (ob/ob mice [1]; 200 mg/kg/day): ineffective; Reduction of hyperglycaemia in the IST (ob/ob mice [1]; 600 mg/kg/day): 22%; Reduction of hyperglycaemia (KKAy mouse; 200 mg/kg/day): ineffective; Reduction of hyperglycaemia (KKAy mouse; 900 mg/kg/day): 50%; Reduction of hyperglycaemia (type 2 diabetes patients; in combination with sulphonylureas): 25%; Reduction of hyperglycaemia (type 2 diabetes patients; monotherapy after the failure of diet and physical exercise): 20% and 13-37%; Incidence of diarrhoea, nausea and gastrointestinal disorders (type 2 diabetes patients; patients on metformin): approximately 20%
CCCCCCCCCCCCCCNC(=O)N[C@H](CC(=O)[O-])C[N+](C)(C)C [ST1326, R-4-trimethylammonio-3-(tetradecylcarbamoyl)-amino-butyrate] | 524.2 ± 56.2 | 370.7 ± 30.0 | 175.3 ± 25.6 | 557.2 ± 30.6 | 498.3 ± 23.5 | 284.6 ± 20.8 | 50300 ± 2430 | 167.3 ± 4.7 | 156.0 ± 7.8 | 236.3 ± 11.2 | 207.0 ± 9.9 | 212.9 ± 8.6 | 25100 ± 652 | Lowering serum glucose (db/db mice [6]; dose of 40 mg/kg/day): inactive; Lowering serum glucose (db/db mice [6]; dose of 100 mg/kg/day): effective; Serum glucose levels (db/db mice [6]; oral 20 mg/kg twice daily for 45 days): 562 ± 40 mg/dL; Serum glucose levels (db/db mice [6]; oral 50 mg/kg twice daily for 45 days): 350 ± 48 Δ mg/dl; Blood glucose levels (ob/ob mice [7]): 394.8 ± 25.7 mg/dL
